# Measurements reported in publication PMC8016831, “Structure–function engineering of novel fish gelatin-derived multifunctional peptides using high-resolution peptidomics and bioinformatics” (Scientific Reports, 2021).
# Ends that are not written are not given here.
# Key:
# DPP-IV = system: DPP-IV; design: method as in PMID 26323964; conditions: cited from earlier work
# [1] = system: K. pneumoniae (ATCC 43816); assay type: cell-based, Klebsiella pneumoniae; conditions: ATCC 43816, 24 h
# Experimental: (§1) The hydrolysates were investigated for their antibacterial activity against E. coli (ATCC 8739), P. aeruginosa (ATCC 9027), S. aureus (ATCC 6538), and K. pneumoniae (ATCC 43816) using the […]. Briefly, 50 μL of different concentrations of peptides were prepared in sterile Mueller Hinton broth. A volume of 30 μL of resazurin indicator solution (0.02%) was added to each well. An equal volume of bacterial suspension (0.5 McFarland standard) and sterile Mueller Hinton broth was then added to the well and incubated at 37 °C for 24 h. Sterile Mueller Hinton broth and 20 μg mL^−1 gentamycin were used as blank and positive controls, respectively. Afterward, the minimum inhibitory concentration (MIC) was determined as the lowest concentration of the peptides at which no visible growth was observed, compared to the positive control. All dilutions were performed in duplicate.
# S. aureus (ATCC 6538) = assay type: cell-based, Staphylococcus aureus; conditions: ATCC 6538, 24 h
# Experimental: as §1
# [2] = system: P. aeruginosa (ATCC 9027); assay type: cell-based, Pseudomonas aeruginosa; conditions: ATCC 9027, 24 h
# Experimental: as §1
# [3] = biological target: dipeptidyl peptidase IV (DPP-IV) (Homo sapiens, UniProt P27487); test: In vitro antidiabetic assay (DPP-IV inhibition); assay type: biochemical
# Experimental: To assess antidiabetic activity, a pre-incubated solution (50 μL) containing 30 μL Tris-HCl buffer, 5 μL of peptides (0.1, 0.2, 0.4, 0.8, 1, 2, and 4 mg mL^−1) or standard (5 μM), and 15 μL […] were poured into the wells of a 96-well microplate. Afterward, 50 μL DPP-IV (0.02 U mL^−1) was added to the mixture and incubated at 37 °C for 30 min. The reaction was stopped by adding 100 μL sodium acetate (1 M, pH 4). Absorbance at 405 nm was measured in a microplate reader. Diprotein-A (isoleucine-proline-isoleucine) was used as a standard DPP-IV inhibitor. The antidiabetic activity was calculated as follows:3 DPP - IVinhibitoryactivity(%)=1-Asample-Ablanck/Apositicecontrol-Anegativecontrol×100
# Tris-HCl (100 mM) was added to the mixture instead of DPP-IV, peptide, or peptide plus DPP-IV to represent a blank, positive, and negative control, respectively.
# in vitro = assay type: cell-based; conditions: human, Caco-2 cells
# Experimental: The synthesized peptides were investigated for ACE and DPP-IV inhibitory activity, and antibacterial potential against E. coli, P. aeruginosa, S. aureus, and K. pneumoniae. Their cytotoxicity was also analyzed using the method described by Benjakul et al.[20], with some modifications. Briefly, Caco-2 and L929 cell lines were cultured in Dulbecco's Modified Eagle Medium and the RAW264.7 cell line in RPMI 1640 medium and incubated at 5% CO2 and 37 °C. All media were supplemented with 10% fetal bovine serum. Each cell line (100 µL at 2 × 10^4 cells mL^−1) was seeded onto 96-well microplates and mixed with an equal volume of each peptide at 1, 2, 4, and 6 mg mL^−1. Subsequently, the microplate was incubated for 72 h, followed by a cell viability assay using the MTT I proliferation kit (Roche Diagnostics, Basel, Switzerland). The absorbance was recorded at 570 nm.
# E. coli (ATCC 8739) = assay type: cell-based, Escherichia coli; conditions: ATCC 8739, 24 h
# Experimental: as §1
# [4] = biological target: angiotensin-converting enzyme (ACE) (Homo sapiens, UniProt P12821); test: In vitro antihypertensive assay (ACE inhibition, FAPGG, spectrophotometric); assay type: biochemical
# Experimental: A spectrophotometrical method was used to determine the antihypertensive activity of peptides according to the procedure of Asoodeh, et al.[18], with some modifications. ACE (22 µL at 50 mU mL^−1) was mixed with 50 µL of the peptides at increasing concentrations (0.1, 0.2, 0.4, 0.8, 1, and 2 mg mL^−1). FAPGG (100 µL at 0.5 mM) and 150 µL of ACE buffer (50 mM Tris-HCl [pH 7.5] containing 0.3 M NaCl and 1 mM ZnCl2) were added to the mixture, followed by monitoring at 340 nm for 60 min. The antihypertensive activity was calculated as follows:2 Antihypertensiveactivity%=1-ΔAbssample/ΔAbscontrol×100
# The ACE buffer was added to the mixture instead of the peptides for control. For determination of the experiment precision, captopril (15 nM) was used as positive control. The half maximal inhibitory concentration (IC50) was defined as the concentration of the peptides at which 50% of ACE activity was inhibited. All experiments were performed in triplicate.
# ACE = conditions: cited from earlier work
# Chain of angiotensin-converting enzyme (ACE) (P12821 30-1306, species assumed): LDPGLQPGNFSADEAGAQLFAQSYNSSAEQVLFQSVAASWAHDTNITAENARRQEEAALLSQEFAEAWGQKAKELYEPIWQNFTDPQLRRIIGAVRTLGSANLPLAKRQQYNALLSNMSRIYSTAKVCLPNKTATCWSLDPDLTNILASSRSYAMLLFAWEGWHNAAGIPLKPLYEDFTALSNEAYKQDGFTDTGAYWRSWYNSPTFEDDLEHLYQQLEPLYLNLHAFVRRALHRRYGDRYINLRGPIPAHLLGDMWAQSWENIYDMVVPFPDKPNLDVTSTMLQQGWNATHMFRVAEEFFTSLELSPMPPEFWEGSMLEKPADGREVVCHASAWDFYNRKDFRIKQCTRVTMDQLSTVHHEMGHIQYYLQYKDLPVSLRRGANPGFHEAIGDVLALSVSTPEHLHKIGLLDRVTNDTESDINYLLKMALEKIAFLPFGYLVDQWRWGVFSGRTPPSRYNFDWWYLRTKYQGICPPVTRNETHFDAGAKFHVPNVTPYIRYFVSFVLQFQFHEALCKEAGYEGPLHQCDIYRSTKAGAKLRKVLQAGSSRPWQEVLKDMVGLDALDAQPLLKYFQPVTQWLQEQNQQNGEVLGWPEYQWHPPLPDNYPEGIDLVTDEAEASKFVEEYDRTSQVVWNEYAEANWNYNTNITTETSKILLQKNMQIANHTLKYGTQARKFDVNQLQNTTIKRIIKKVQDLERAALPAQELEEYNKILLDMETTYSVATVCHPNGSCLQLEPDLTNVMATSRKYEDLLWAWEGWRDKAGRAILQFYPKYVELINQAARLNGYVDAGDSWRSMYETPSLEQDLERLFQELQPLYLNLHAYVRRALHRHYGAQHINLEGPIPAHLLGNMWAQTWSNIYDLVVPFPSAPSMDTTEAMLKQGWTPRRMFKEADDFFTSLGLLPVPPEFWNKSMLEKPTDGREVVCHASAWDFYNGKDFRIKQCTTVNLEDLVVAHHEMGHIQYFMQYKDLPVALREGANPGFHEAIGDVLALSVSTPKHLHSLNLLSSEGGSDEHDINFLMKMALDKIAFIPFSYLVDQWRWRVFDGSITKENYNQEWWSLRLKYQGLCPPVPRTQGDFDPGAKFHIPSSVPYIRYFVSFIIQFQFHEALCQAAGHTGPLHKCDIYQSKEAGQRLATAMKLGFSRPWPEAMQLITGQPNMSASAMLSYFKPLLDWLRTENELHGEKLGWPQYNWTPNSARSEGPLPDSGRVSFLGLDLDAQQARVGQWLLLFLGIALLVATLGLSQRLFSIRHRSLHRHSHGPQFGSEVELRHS
# Chain of dipeptidyl peptidase IV (DPP-IV) (P27487 whole entry, species assumed): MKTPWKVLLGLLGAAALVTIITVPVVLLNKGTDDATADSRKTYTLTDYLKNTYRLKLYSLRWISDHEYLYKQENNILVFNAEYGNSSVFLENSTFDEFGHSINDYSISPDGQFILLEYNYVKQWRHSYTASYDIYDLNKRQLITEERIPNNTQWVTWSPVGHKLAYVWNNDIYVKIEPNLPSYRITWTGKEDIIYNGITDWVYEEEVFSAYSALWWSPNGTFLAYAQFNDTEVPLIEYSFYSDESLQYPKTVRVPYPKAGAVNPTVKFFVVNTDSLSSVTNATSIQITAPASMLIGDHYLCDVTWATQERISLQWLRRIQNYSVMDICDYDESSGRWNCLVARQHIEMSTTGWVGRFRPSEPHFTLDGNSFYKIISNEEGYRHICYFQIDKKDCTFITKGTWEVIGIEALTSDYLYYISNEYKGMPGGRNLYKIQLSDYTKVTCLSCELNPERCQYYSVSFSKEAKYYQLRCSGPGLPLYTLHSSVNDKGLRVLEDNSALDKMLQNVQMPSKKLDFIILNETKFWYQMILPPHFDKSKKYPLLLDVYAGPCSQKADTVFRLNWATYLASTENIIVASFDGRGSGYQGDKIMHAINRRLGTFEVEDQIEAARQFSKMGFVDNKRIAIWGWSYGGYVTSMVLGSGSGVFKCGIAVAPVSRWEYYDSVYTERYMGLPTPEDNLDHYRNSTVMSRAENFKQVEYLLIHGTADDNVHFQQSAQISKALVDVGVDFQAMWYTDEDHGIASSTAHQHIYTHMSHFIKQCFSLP
Substance,DPP-IV inhibitory activities (DPP-IV),MIC against K. pneumoniae [1] [µg/mL],MIC against S. aureus (S. aureus (ATCC 6538)) [µg/mL],MIC against P. aeruginosa [2] [µg/mL],IC50 [3] [µM],"viability at 72 h, 6 mg mL^−1 (in vitro) [%]",MIC for E. coli (E. coli (ATCC 8739)) [µg/mL],IC50 [4] [µM],ACE inhibition (ACE) [%]
MHQPPQPL,moderate,–,–,–,–,–,–,–,–
SPTVMFPPQSVL,moderate,–,–,–,–,–,–,–,–
"GRDGEP-NH2 [P2, GRDGEP]",–,≥ 2000,1160,≥ 2000,1480,95.8,1330,811,–
"MTGTQGEAGR-NH2 [P3, MTGTQGEAGR]",–,1500,200,1660,1150,95.9,460,775,–
VLAQYK,–,–,–,–,–,–,–,–,30.1
